Experiments:
[1] = tested on: A-375 cells; assay: Real-time cell analysis of cell number and proliferation, xCELLigence system (Examples 8 and 11); type: cell-based, human
[2] = tested on: human melanoma cell line A-375; assay: Induction of apoptosis, sub-G1 peak method (Examples 6 and 9); type: cell-based; settings: A-375, 24 hours; for Induction of apoptosis (sub-G1 peak): 10-3000 μg/ml delphinidin-SBE-β-CD or 15-120 μM delphinidin Cl, low and higher cell confluence (FIGS. 2a, 2b)
[3] = tested on: human melanoma cell line A-375; assay: Cell viability test, WST-1 assay (Examples 7 and 10); type: cell-based; settings: A-375, 24 hours; for Cell viability (WST-1 assay): 10-3000 μg/ml delphinidin-SBE-β-CD or 15-120 μM delphinidin Cl, low and higher cell confluence (FIGS. 3a, 3b)
[4] = tested on: A-375 cells; assay: Microscopic analysis of cell morphology after 24 hours of treatment; settings: A-375, 24 hours of treatment, high concentrations (FIG. 4)
[5] = Stability trials in aqueous solution, 0.9% NaCl, 37° C. (Example 5); type: physicochemical; settings: 0.9% NaCl solution, dark
Experimental: To determine the delphinidin chloride content in the delphinidin-containing solutions, a reversed-phase HPLC method was used similar to the one already described above. The following reagents were used in this case: […] The solutions were prepared at room temperature and subsequently stored in the dark at 37° C. in closed vials. […] The table below gives the content determined as a percentage of the starting concentration stated above.

[6] = tested on: human dermal microvascular endothelial cells; assay: Cell vitality, ATP luminescence assay, endothelial cells (Example 12); type: cell-based; settings: 0.1-100 μM (0.1; 3.2; 100 μM); Day 1-Day 4 (FIG. 18)
From the text: The human dermal microvascular endothelial cells were obtained by the standard method known to those skilled in the art of Hewett and Murray (1993) [Hewett P. W. and Murray J. C. (1993) Immunomagnetic purification of human microvessel endothelial cells using Dynabeads coated monoclonal antibodies to PECAM-1. Eur J Cell Biol 62: 451-454; Hewett P. W. & Murray J. C. (1993) Human microvessel endothelial cells: Isolation, culture and characterization. In Vitro Cell Biol: 823-830].

[7] = Solubility of delphinidin chloride in aqueous cyclodextrin solutions (Example 1); type: physicochemical; settings: pure water, cyclodextrin concentration 0; stirred 30° C. 20 h in the dark, filtered 0.22 μm

Row | Molecule | Intensification of TRAIL sensitivity (real-time cell monitoring) ([1]; A-375, high cell confluence, SBE-β-CD 30 or 1000 μg/ml with TRAIL 0.02 μg/ml (FIGS. 16 and 17)) | Induction of apoptosis (sub-G1 peak) [2] | Induction of apoptosis (sub-G1 peak), Example 9 ([2]; complex partner as control (FIG. 11b)) | Cell viability (WST-1 assay) [3] | Cell vitality, Example 10 ([3]; complex partner as control (FIG. 12b)) | Concentration at which similarly strong antiproliferative effects are seen ([1]; A-375, high and low cell confluence (FIGS. 7 and 8)) | Morphology of the cells under microscopic analysis [4] | Delphinidin content as a percentage of the starting concentration ([5]; 0 h, start 1.584 mg/ml (complex) or 0.0216 mg/ml (delphinidin)) | Delphinidin content as a percentage of the starting concentration ([5]; 1 h) | Delphinidin content as a percentage of the starting concentration ([5]; 2 h) | Delphinidin content as a percentage of the starting concentration ([5]; 3 h) | Delphinidin content as a percentage of the starting concentration ([5]; 4 h) | Cytotoxic effects on endothelial cells (vitality) [6] | Delphinidin chloride, solubility achievable [7]
1 | sulfobutyl ether β-cyclodextrin [SBE-β-CD] | No intensification of TRAIL sensitivity | no effect | at control level | no effect | at control level |  |  |  |  |  |  |  |  | 
2 | Oc1cc(O)c2cc(O)c(-c3cc(O)c(O)c(O)c3)[o+]c2c1.[Cl-] [delphinidin Cl, delphinidin chloride] |  | significant dose-dependent induction of apoptosis |  | loss of vital cells with increasing dose |  | 60 to 120 µM | become globular and/or detached | 100% | 8.3% | 6.5% | 5.6% | 5.1% | no significant cytotoxic effects | 70 µg/mL
